The structures appear in SMILES notation.

Sequence of E3 (His-APC11/APC2-"APC") (Q9NYG5 whole entry): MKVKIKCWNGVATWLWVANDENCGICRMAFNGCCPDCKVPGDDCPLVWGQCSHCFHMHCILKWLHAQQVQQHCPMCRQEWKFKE
Sequence of E3 (His-APC11/APC2-"APC") (Q9UJX6 whole entry): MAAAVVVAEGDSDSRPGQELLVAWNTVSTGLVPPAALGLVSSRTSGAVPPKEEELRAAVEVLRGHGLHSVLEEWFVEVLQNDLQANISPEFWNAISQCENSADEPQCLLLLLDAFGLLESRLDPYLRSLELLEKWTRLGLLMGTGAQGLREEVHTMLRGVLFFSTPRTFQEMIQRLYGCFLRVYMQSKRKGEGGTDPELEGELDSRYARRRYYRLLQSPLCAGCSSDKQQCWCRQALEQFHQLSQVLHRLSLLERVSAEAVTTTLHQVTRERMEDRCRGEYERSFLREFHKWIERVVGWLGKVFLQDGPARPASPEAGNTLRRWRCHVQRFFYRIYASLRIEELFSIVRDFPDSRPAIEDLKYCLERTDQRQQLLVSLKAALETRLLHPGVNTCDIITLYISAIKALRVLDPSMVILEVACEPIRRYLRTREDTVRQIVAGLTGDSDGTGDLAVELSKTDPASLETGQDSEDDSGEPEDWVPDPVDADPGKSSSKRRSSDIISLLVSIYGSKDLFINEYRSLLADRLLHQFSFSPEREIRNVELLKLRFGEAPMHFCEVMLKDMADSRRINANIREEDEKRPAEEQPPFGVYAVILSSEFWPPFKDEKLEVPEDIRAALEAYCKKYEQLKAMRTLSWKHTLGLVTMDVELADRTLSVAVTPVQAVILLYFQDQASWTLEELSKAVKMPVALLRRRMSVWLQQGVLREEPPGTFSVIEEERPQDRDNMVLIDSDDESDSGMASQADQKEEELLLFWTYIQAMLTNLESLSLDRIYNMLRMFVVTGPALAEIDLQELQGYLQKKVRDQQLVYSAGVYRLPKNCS

This assay concerns the target E3 (His-APC11/APC2-"APC") (Homo sapiens, UniProt Q9NYG5+Q9UJX6). The assay is described as follows: Plate-based E3 ligase assay (APC FLAG), auto-ubiquitination. The class given is biochemical. The arrangement: key: “+” indicates that the compound exibits inhibitory activity; “−” indicates that low or no inhibitory activity was observed. Particulars: 8 concentrations tested. The procedure: E3 (His-APC11/APC2-“APC”) auto-ubiquitination was measured as described in U.S. patent application Ser. No. 09/826,312 (Publication No. US-2002-0042083-A1), which is incorporated herein in its entirety. Details of the protocol are described below. Activity in the presence of the compound was determined relative to a parallel control in which only DMSO was added. Values of the IC50 were typically determined using 6 or 8 different concentrations of the compound, although as few as 2 concentrations may be used to approximate the IC50 value.
Nickel-coated 96-well plates (Pierce 15242) were blocked for 1 hour with 100 μl of blocking buffer at room temperature. The plates were washed 4 times with 225 μl of 1×PBS and 80 μl of the reaction buffer were added that contained 100 ng/well of Flag-ubiquitin. To this, 10 μl of the test compound diluted in DMSO were added. After the test compound was added, 10 μl of E1 (human), E2 (Ubch5c), and APC in Protein Buffer was added to obtain a final concentration of 5 ng/well of E1, 20 ng/well of E2 and 100 ng/well of APC. The plate were shaken for 10 minutes and incubated at room temperature for 1 hour. After incubation, the plates were washed 4 times with 225 μl of 1×PBS and 100 μl/well of Antibody Mix were added to each well. The plates were incubate at room temperature for another hour after which they were washed 4 times with 225 μl of 1×PBS and 100 μl/well of Lumino substrate were added to each well. The luminescence was measured by using a BMG luminescence microplate reader.
To prepare the Blocking Buffer (1 liter; 1% Casein in 1×PBS), 10 grams of Casein (Hammersten Grade Casein from Gallard-Schlesinger Inc. #440203) were placed into 1 liter of 1×PBS, stirred on a hot plate and kept between 50-60° C. for an hour. The buffer was allowed to cool to room temperature and then filtered using a Buchner Funnel (Buchner filter funnel 83 mm 30310-109) and Whatman filter paper (Whatman Grade No. 1 Filter paper 28450-070). It was stored at 4° C. until used.
The reaction buffer consisted of 62.5 mM Tris pH 7.6 (Trizma Base—Sigma T-8524), 3 mM MgCl2 (Magnesium Chloride—Sigma M-2393), 1 mM DTT (Sigma D-9779), 2.5 mM ATP (Roche Boehringer Mann Corp. 635-316), 100 ng/well of Flag-ubiquitin, 0.1% BSA (Sigma A-7906), and 0.05% Tween-20 (Sigma P-7949).
The Protein Buffer consisted of 20 mM Tris pH 7.6, 10% glycerol (Sigma G-5516) and 1 mM DTT.
The antibody mix consisted of 0.25% BSA (Sigma A-7906) in 1×PBS, 1/50,000 anti-Flag (Sigma F-3165), 1/100,000 of anti-Mouse IgG-HRP (Jackson Immunoresearch #115-035-146).
The substrate mix consisted of SuperSignal Substrate from Pierce (catalog number 37070ZZ) and was prepared by mixing 100 ml of the peroxide solution, 100 ml of the enhancer solution and 100 ml of Milli-Q® water.
As for `O=[N+]([O-])c1ccc(Oc2c(Cl)cc(S(=O)(=O)NCC3CC3)cc2Cl)c(Cl)c1` [Compound 120, N-(Cyclopropylmethyl)-3,5-Dichloro-4-(2-Chloro-4-Nitrophenoxy) Benzenesulfonamide], the “APC Flag 8 pt” value is “+”.

`NS(=O)(=O)c1cc(Cl)c(Oc2ccc([N+](=O)[O-])cc2Cl)c(Cl)c1` [Compound 124, 3,5-dichloro-4-(2-chloro-4-nitrophenoxy)benzenesulfonamide]: the “APC Flag 8 pt” value is on record as “+”.

As for `O=[N+]([O-])c1ccc(Oc2c(Cl)cc(S(=O)(=O)NCc3ccc(Br)cc3)cc2Cl)c(Cl)c1` [Compound 128, N-(4-bromobenzyl)-3,5-dichloro-4-(2-chloro-4-nitrophenoxy)benzenesulfonamide], the “APC Flag 8 pt” value is “−”.

Regarding `CC(C)Oc1ccc(NS(=O)(=O)c2cc(Cl)c(Oc3ccc([N+](=O)[O-])cc3Cl)c(Cl)c2)cc1` [Compound 134, 3,5-dichloro-4-(2-chloro-4-nitrophenoxy)-N-[4-isopropoxyphenyl]benzenesulfonamide], the “APC Flag 8 pt” value was “+”.

Regarding `O=C(NCC1CC1)[C@@H]1CCCN1S(=O)(=O)c1cc(Cl)c(Oc2ccc([N+](=O)[O-])cc2Cl)c(Cl)c1` [Compound 139, N-(cyclopropylmethyl)-1-{[3,5-dichloro-4-(2-chloro-4-nitrophenoxy)phenyl]sulfonyl}prolinamide], the “APC Flag 8 pt” value is on record as “−”.

For the molecule `O=C(NCC1CC1)c1cccc(NS(=O)(=O)c2cc(Cl)c(Oc3ccc([N+](=O)[O-])cc3Cl)c(Cl)c2)c1` [Compound 151, N-(cyclopropylmethyl)-3-({[3,5-dichloro-4-(2-chloro-4-nitrophenoxy)phenyl]sulfonyl}amino)benzamide], the “APC Flag 8 pt” value was “+”.

On to `CN(c1cccc(Cl)c1)S(=O)(=O)c1cc(Cl)c(Oc2ccc([N+](=O)[O-])cc2Cl)c(Cl)c1` [Compound 153, 3,5-dichloro-4-(2-chloro-4-nitrophenoxy)-N-(3-chlorophenyl)-N-methylbenzenesulfonamide], for which the “APC Flag 8 pt” value was “−”.

Turning to `COc1ccc(Cl)cc1NS(=O)(=O)c1cc(Cl)c(Oc2ccc([N+](=O)[O-])cc2Cl)c(Cl)c1` [Compound 164, 3,5-dichloro-N-(5-chloro-2-methoxyphenyl)-(2-chloro-4-nitrophenoxy)lbenzenesulfonamide], the “APC Flag 8 pt” value is “+”.

As to `O=C(Nc1cc(Cl)ccc1Cl)N1CCC(Oc2ncccn2)CC1` [Compound 310, N-(2,5-dichlorophenyl)-4-(pyrimidin-2-yloxy)piperidine-1-carboxamide], the “APC Flag 8 pt” value is given as “−”.

In the case of `O=[N+]([O-])c1ccc(Oc2c(Cl)cc(S(=O)(=O)N3CCOCC3)cc2Cl)c(Cl)c1` [Example 15, 4-{[3,5-dichloro-4-(2-chloro-4-nitro-phenoxy)phenyl]sulfonyl}morpholine], the “APC Flag 8 pt” value is listed as “−”.

For `CC1CCN(S(=O)(=O)c2cc(Cl)c(Oc3ccc([N+](=O)[O-])cc3Cl)c(Cl)c2)CC1` [Example 19, 1-{[3,5-dichloro-4-(2-chloro-4-nitrophenoxy)phenyl]sulfonyl}-4-methylpiperidine], the “APC Flag 8 pt” value was “−”.

As for `CC1CC(C)CN(S(=O)(=O)c2cc(Cl)c(Oc3ccc([N+](=O)[O-])cc3Cl)c(Cl)c2)C1` (stereo not shown) [Example 20, 1-{[3,5-dichloro-4-(2-chloro-4-nitrophenoxy)phenyl]sulfonyl}-3,5-dimethylpiperidine], the “APC Flag 8 pt” value was “+”.

For the molecule `O=[N+]([O-])c1ccc(Oc2c(Cl)cc(S(=O)(=O)N3CCCC3)cc2Cl)c(Cl)c1` [Example 22, 1-{[3,5-dichloro-4-(2-chloro-4-nitrophenoxy)phenyl]sulfonyl}pyrrolidine], the “APC Flag 8 pt” value was “−”.

As to `N=C(NS(=O)(=O)c1cc(Cl)c(Oc2ccc([N+](=O)[O-])cc2)c(Cl)c1)c1ccc(Cl)cc1` [Example 34, 4-chloro-N-{[3,5-dichloro4-(4-nitrophenoxy)phenyl]sulfonyl}benzenecarboximidamide], the “APC Flag 8 pt” value is reported as “−”.

For `CC(=N)NS(=O)(=O)c1cc(Cl)c(Oc2ccc([N+](=O)[O-])cc2)c(Cl)c1` [Example 63, N-{[3,5-dichloro-4-(4-nitrophenoxy)phenyl]sulfonyl}ethanimidamide], the “APC Flag 8 pt” value is listed as “−”.

In the case of `O=S(=O)(c1ccc(Oc2ccc(Cl)cc2Cl)cc1F)N1CCCCC1` [Example 119, 1-{[4-(2,4-dichlorophenoxy)-2-fluorophenyl]sulfonyl)piperidine], the “APC Flag 8 pt” value is on record as “+”.

`O=[N+]([O-])c1ccc(Oc2c(Cl)cc(S(=O)(=O)NCC3CCCO3)cc2Cl)c(Cl)c1` (stereo not shown) [Example 121, 3,5-dichloro-4-(2-chloro-4-nitrophenoxy)-N-(tetrahydrofuran-2-ylmethyl)benzene-sulfonamide]: the “APC Flag 8 pt” value is on record as “−”.

Consider `O=C1CCC(CCCNS(=O)(=O)c2cc(Cl)c(Oc3ccc([N+](=O)[O-])cc3Cl)c(Cl)c2)N1` (stereo not shown) [Example 122, 3,5-dichloro-4-(2-chloro-4-nitrophenoxy)-N-[3-(5-oxopyrrolidin-2-yl)propyl] benzenesulfonamide], for which the “APC Flag 8 pt” value was “+”.

Take `O=[N+]([O-])c1ccc(Oc2c(Cl)cc(S(=O)(=O)NCc3ccc(Cl)cc3)cc2Cl)c(Cl)c1` [Example 125, 3,5-dichloro-N-(4-chlorobenzyl)-4-(2-chloro-4-nitrophenoxy)benzenesulfonamide]: the “APC Flag 8 pt” value is “−”.

Turning to `O=[N+]([O-])c1ccc(Oc2c(Cl)cc(S(=O)(=O)NCCCOc3cc(Cl)cc(Cl)c3)cc2Cl)c(Cl)c1` [Example 126, 3,5-dichloro-4-(2-chloro-4-nitrophenoxy)-N-[3-(3,5-dichlorophenoxy)propyl] benzenesulfonamide], the “APC Flag 8 pt” value is “−”.

As for `O=[N+]([O-])c1ccc(Oc2c(Cl)cc(S(=O)(=O)NCCc3ccc(Cl)cc3Cl)cc2Cl)c(Cl)c1` [Example 127, 3,5-dichloro-4-(2-chloro-4-nitrophenoxy)-N-[2-(2,4-dichlorophenyl)ethyl]benzene-sulfonamide], the “APC Flag 8 pt” value is reported as “+”.

As to `COc1ccc(CCNS(=O)(=O)c2cc(Cl)c(Oc3ccc([N+](=O)[O-])cc3Cl)c(Cl)c2)cc1` [Example 129, 3,5-dichloro-4-(2-chloro-4-nitrophenoxy)-N-[2-(4-methoxyphenyl)ethyl]benzene-sulfonamide], the “APC Flag 8 pt” value was “+”.

As for `O=[N+]([O-])c1ccc(Oc2c(Cl)cc(S(=O)(=O)NC3CCNCC3)cc2Cl)c(Cl)c1` [Example 130, 3,5-dichloro-4-(2-chloro-4-nitrophenoxy)-N-piperidin-4-ylbenzenesulfonamide], the “APC Flag 8 pt” value was “−”.

On to `CN(C)CCCNS(=O)(=O)c1cc(Cl)c(Oc2ccc([N+](=O)[O-])cc2Cl)c(Cl)c1` [Example 131], for which the “APC Flag 8 pt” value is given as “+”.

Regarding `O=[N+]([O-])c1ccc(Oc2c(Cl)cc(S(=O)(=O)NCCN3CCOCC3)cc2Cl)c(Cl)c1` [Example 132, 3,5-dichloro-4-(2-chloro-4-nitrophenoxy)-N-(2-morpholin-4-ylethyl)benzenesulfonamide], the “APC Flag 8 pt” value is on record as “−”.

Consider `O=[N+]([O-])c1ccc(Oc2c(Cl)cc(S(=O)(=O)NCc3ccncc3)cc2Cl)c(Cl)c1` [Example 133, 3,5-dichloro-4-(2-chloro-4-nitrophenoxy)-N-(pyridin-4-ylmethyl)benzenesulfonamide], for which the “APC Flag 8 pt” value is listed as “−”.

For the molecule `CNS(=O)(=O)c1cc(Cl)c(Oc2ccc([N+](=O)[O-])cc2Cl)c(Cl)c1` [Example 135, 3,5-dichloro-4-(2-chloro-4-nitrophenoxy)-N-methylbenzenesulfonamide], the “APC Flag 8 pt” value was “+”.

Take `N#Cc1ccc(N(S(=O)(=O)c2cc(Cl)c(Oc3ccc([N+](=O)[O-])cc3Cl)c(Cl)c2)S(=O)(=O)c2cc(Cl)c(Oc3ccc([N+](=O)[O-])cc3Cl)c(Cl)c2)cc1` [Example 136, 3,5-dichloro-4-(2-chloro-4-nitrophenoxy)-N-(4-cyanophenyl)-N-(1,3-dichloro-2-(2-chloro-4-nitrophenoxy)-5-sulfonylbenzene)-benzenesulfonamide]: the “APC Flag 8 pt” value is on record as “+”.

The values are drawn from patent US7915293B2, “Ubiquitin ligase inhibitors” (Rigel Pharmaceuticals, Inc., priority 2003, dated 2011).
